Source: patent US4217450A, “Imidazoledicarboxylic acid substituted cephalosporin derivatives” (Ajinomoto Company, Incorporated, priority 1977, dated 1980)
In brackets after ≈: the same amount, converted by molar mass. Structures can show the parent of a compound that is named as a salt.

Each molecule was assayed on Pseudomonas aeruginosa AJ 2116 (assay: MIC using Pseudomonas aeruginosa AJ 2116 as the test organism). Details: AJ2116, read-out: MIC (Minimum Inhibitory concentration).
Type: cell-based
Description: Comparative MIC's for compounds using Pseudomonas aeruginosa AJ 2116 as the test organism are as follows: "MIC" represents the Minimum INhibitory concentration in mcg./ml of the compound required to inhibit the growth of the test organism described.

Row | MIC [µg/mL] | Compound
1 | 12.5 | NC(=O)c1cc[n+](CC2=C(C(=O)[O-])N3C(=O)[C@@H](NC(=O)[C@H](NC(=O)c4nc[nH]c4C(=O)O)c4ccccc4)[C@H]3SC2)cc1 [II, 7-β-[D-(-)-α-(4-carboxyimidazole-5-carbox-amido)-phenylacetoamido]-3-(4-carbamoylpyridinium)methyl-3-cephem-4-carboxylic acid.mixture of K and Na salt.trihydrate]
2 | 50 (≈ 99.5 µM) | CC1(C)S[C@@H]2[C@H](NC(=O)[C@H](NC(=O)c3nc(N)[nH]c3C(=O)O)c3ccccc3)C(=O)N2[C@H]1C(=O)O [VII, D-α-(2-amino-4-carboxyimidazole-5-carboxamido)benzylpenicillin]
3 | 50 (≈ 96.2 µM) | CC1(C)S[C@@H]2[C@H](NC(=O)[C@H](NC(=O)c3nc(S)[nH]c3C(=O)O)c3ccccc3)C(=O)N2[C@H]1C(=O)O [IV, D-α-(2-mercapto-4-carboxyimidazole-5-carboxamido)benzylpenicillin]
4 | 12.5 (≈ 18.6 µM) | O=C([O-])C1=C(C[n+]2ccc(CCS(=O)(=O)O)cc2)CS[C@@H]2[C@H](NC(=O)[C@H](NC(=O)c3nc[nH]c3C(=O)O)c3ccccc3)C(=O)N12 [IX, 7-β-[D-(-)-α-(4-carboxyimidazole-5-carboxamido)phenylacetamido]-3-(4-β-sulphoethylpyridinium)-methyl-3-cephem-4-carboxylic acid]
5 | 12.5 | CC1(C)S[C@@H]2[C@H](NC(=O)[C@H](NC(=O)c3nc[nH]c3C(=O)O)c3ccccc3)C(=O)N2[C@H]1C(=O)O [I, D-α-(4-carboxyimidazole-5-carboxyamido)benzylpenicillin disodium salt monohydrate]
6 | 50 (≈ 83.4 µM) | Cn1nnnc1SCC1=C(C(=O)O)N2C(=O)[C@@H](NC(=O)[C@H](NC(=O)c3nc[nH]c3C(=O)O)c3ccccc3)[C@H]2SC1 [VIII, 7-β-[-(-)-α-(4-carboxyimidazole-5-carboxamido)phenylacetamido]-3-[[(1-methyl-1H-tetrazol-5-yl)thio]methyl]-3-cephem-4-carboxylic acid]
7 | 100 (≈ 264 µM) | CC1(C)S[C@@H]2[C@H](NC(=O)C(C(=O)O)c3ccccc3)C(=O)N2[C@H]1C(=O)O (some centres unmarked) [Carbenicillin, reference compound]
8 | 25 (≈ 49.7 µM) | CC1(C)S[C@@H]2[C@H](NC(=O)[C@H](NC(=O)c3nc(O)[nH]c3C(=O)O)c3ccccc3)C(=O)N2[C@H]1C(=O)O [III, D-α-(2-hydroxy-4-carboxyimidazole-5-carboxamido)benzylpenicillin]
9 | > 500 | CC1(C)S[C@@H]2[C@H](NC(=O)[C@H](N)c3ccccc3)C(=O)N2[C@H]1C(=O)O [ampicillin, reference compound]
10 | 50 (≈ 95.8 µM) | CC1(C)S[C@@H]2[C@H](NC(=O)[C@H](NC(=O)c3nc(Cl)[nH]c3C(=O)O)c3ccccc3)C(=O)N2[C@H]1C(=O)O [VI, D-α-(2-chloro-4-carboxyimidazole-5-carboxamido)benzylpenicillin]
11 | 50 (≈ 99.7 µM) | Cc1nc(C(=O)N[C@@H](C(=O)N[C@@H]2C(=O)N3[C@@H]2SC(C)(C)[C@@H]3C(=O)O)c2ccccc2)c(C(=O)O)[nH]1 [V, D-α-(2-methyl-4-carboxyimidazole-5-carboxamido) benzylpenicillin]
